Earlier results, collected in patent US20240115547A1, “PSYCHOTROPIC AGENTS AND USES THEREOF” (LB PHARMACEUTICALS INC., priority 2021, published 2024).

Tests used:
[1] = biological target: T1, D4 receptor subtype (Homo sapiens, UniProt P21917); conditions: cited from earlier work
T1 sequence (P21917 1-419): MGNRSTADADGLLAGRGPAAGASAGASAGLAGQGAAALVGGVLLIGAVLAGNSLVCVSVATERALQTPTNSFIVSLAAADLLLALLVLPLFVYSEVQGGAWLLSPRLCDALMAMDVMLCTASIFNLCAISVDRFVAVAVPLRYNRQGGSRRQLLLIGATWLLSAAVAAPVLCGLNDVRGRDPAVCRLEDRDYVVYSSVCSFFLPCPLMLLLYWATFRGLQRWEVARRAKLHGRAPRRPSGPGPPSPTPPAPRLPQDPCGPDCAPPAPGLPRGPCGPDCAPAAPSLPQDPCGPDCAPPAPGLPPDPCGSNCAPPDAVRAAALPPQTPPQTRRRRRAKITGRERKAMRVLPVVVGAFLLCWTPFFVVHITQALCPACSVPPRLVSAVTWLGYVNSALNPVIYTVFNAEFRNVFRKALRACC

[2] = biological target: D1 receptor subtype (Homo sapiens, UniProt P21728); conditions: cited from earlier work
[3] = biological target: D5 receptor subtype (Homo sapiens, UniProt P21918); conditions: cited from earlier work
[4] = administration of 50 mg amisulpride, previously published (FIG. 4A); cited from earlier work
[5] = 2014 study; cited from earlier work
[6] = biological target: 5-HT2a receptor (Homo sapiens, UniProt P28223); conditions: compared to other antipsychotics; cited from earlier work
[7] = test system: Striatal D2/D3 Receptor; conditions: in vivo; cited from earlier work

Chain of D5 receptor subtype (P21918 whole entry): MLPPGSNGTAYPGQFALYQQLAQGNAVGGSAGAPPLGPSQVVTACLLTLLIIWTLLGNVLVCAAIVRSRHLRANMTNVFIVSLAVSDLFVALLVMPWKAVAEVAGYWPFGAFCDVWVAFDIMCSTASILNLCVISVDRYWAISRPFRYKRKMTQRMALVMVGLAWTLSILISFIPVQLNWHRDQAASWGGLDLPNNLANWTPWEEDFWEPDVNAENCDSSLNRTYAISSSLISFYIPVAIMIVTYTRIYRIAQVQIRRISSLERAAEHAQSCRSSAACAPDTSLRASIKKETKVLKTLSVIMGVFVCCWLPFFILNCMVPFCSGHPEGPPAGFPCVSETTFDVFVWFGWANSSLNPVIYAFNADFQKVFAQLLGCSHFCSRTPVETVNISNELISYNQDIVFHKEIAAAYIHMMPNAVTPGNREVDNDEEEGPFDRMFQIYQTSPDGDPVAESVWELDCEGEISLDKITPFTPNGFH
Chain of D1 receptor subtype (P21728 whole entry): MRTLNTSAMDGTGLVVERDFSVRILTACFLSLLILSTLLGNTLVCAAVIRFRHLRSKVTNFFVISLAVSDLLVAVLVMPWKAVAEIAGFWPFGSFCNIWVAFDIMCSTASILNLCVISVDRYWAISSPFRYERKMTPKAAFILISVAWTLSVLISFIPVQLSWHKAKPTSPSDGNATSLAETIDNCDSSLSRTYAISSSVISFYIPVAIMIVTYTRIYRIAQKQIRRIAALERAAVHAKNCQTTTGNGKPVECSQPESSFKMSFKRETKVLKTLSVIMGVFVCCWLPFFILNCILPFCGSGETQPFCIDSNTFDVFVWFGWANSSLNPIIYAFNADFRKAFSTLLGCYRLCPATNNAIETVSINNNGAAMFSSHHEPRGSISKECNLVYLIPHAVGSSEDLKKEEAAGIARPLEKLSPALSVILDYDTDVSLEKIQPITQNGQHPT
Chain of 5-HT2a receptor (P28223 whole entry): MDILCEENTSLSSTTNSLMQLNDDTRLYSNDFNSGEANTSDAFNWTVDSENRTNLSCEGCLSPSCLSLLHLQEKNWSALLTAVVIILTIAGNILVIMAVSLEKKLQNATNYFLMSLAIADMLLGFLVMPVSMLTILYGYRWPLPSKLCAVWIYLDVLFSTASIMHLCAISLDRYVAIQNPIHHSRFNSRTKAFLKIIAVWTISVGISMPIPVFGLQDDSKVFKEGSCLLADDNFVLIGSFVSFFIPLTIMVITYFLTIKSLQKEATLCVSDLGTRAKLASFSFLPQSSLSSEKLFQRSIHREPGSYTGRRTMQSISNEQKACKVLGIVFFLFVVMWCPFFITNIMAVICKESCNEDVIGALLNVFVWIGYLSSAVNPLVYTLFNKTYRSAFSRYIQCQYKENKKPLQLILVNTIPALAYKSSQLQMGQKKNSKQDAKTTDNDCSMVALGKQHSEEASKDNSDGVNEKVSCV

## CCN1CCCC1CNC(=O)c1cc(S(=O)(=O)CC)c(N)cc1OC (stereo not shown) [amisulpride, 4-amino-N-(((1-ethyl-2-pyrrolidinyl)methyl)-5-(ethylsulfonyl))-2-methoxybenzamide]
[1]
  affinity for D4 receptor subtype: without any affinity
[2]
  affinity for D1 receptor subtype: without any affinity
[3]
  affinity for D5 receptor subtype: without any affinity
[4]
  AUC: 603 ngh/mL
[5]
  passive diffusion across a PAMPA membrane (measured as Pe): lowest of 30 psychiatric drugs tested
[6]
  activity at the 5-HT2a receptor: not noted to have any activity
[7]
  dose required for 75% dopamine (e.g., D2/D3) RO: more than 400 mg
